The results in this text go back to patent US10273242B2, “Compound inhibiting activities of BTK and/or JAK3 kinases” (BEIJING HANMI PHARMACEUTICAL CO., LTD., priority 2013, dated 2019).

In assay [1] the target is T1, JAK3 kinase (Homo sapiens, UniProt P52333).
T1 construct: purchased SignalChem J03-11G
The assay can be described thus: JAK3 kinase activity inhibition assay (ADP-Glo). It counts as biochemical. The following applies: ATP 10 μM. Here is the method: The JAK3 kinase (purchased from SignalChem, No.: J03-11G) was diluted with reaction buffer (40 mM Tris-HCl, pH 7.5; 20 mM MgCl2, 0.1 mg/ml BSA; 1 mM DTT) to 2 times of the final concentration (which is 0.5 ng/μL) and added with 5 μL/well to a 96-well plate. The compounds of the present invention were serial diluted with deionized water to four times (i.e., 40 μM, 4 μM, 0.4 μM, 80 nM, 16 nM, 3.2 nM, respectively) of the final concentrations (10 μM, 1 μM, 0.1 μM, 20 nM, 4 nM, 0.8 nM, respectively), and added with 2.5 μL/well to the test wells of the 96-well plate. After incubation at 25° C. for 10 minutes, 10 μM of ATP (purchased from Promega, No.: V9102) and 0.2 μg/μL of Poly E4Y1 (purchased from Sigma, No.: P0275-25MG) were added at 2.5 μL/well and reacted at 25° C. for 60 minutes. After the reaction was completed, 10 μL of the ADP-Glo reagent (ADP-Glo™ kinase assay kit, purchased from Promega, No.: V9102) was added to each well and reacted at 25° C. for 40 minutes. Then 20 μL of the ADP-Glo kinase detection reagent was added to each well and reacted at 25° C. for 30 minutes. The kinase activity was detected by luminescence using the ADP-Glo kinase assay kit according to the manufacture's instruction, and IC50 values of the compounds of the present invention were calculated.
Background: ADP-Glo turns the ADP formed in a reaction into a luminescent signal.

In assay [2] the target is T2, BTK kinase (Homo sapiens, UniProt Q06187).
T2 construct: purchased Invitrogen PV3363
The assay can be described thus: BTK kinase activity inhibition assay (ADP-Glo). As to conditions: ATP 50 μM. It counts as biochemical. Here is the method: The BTK kinase (purchased from Invitrogen, No.: PV3363) was diluted with reaction buffer (40 mM Tris-HCl, pH 7.5; 20 mM MgCl2, 0.1 mg/ml BSA; 1 mM DTT; 2 mM MnCl2) to 2 times of the final concentration (which is 1.1 ng/μL) and added with 5 μL/well to a 96-well plate. The compounds of the present invention were serial diluted with deionized water to four times (i.e., 40 μM, 4 μM, 0.4 μM, 80 nM, 16 nM, 3.2 nM, respectively) of the final concentrations (10 μM, 1 μM, 0.1 μM, 20 nM, 4 nM, 0.8 nM, respectively), and added at 2.5 μL/well to the test wells of the 96-well plate. After incubation at 25° C. for 10 minutes, ATP (50 μM) (purchased from Promega, No.: V9102) and 0.2 μg/μL of Poly E4Y1 (purchased from Sigma, No.: P0275-25MG) were added with 2.5 μL/well and incubated at 25° C. for 120 minutes. After the reaction was completed, 10 μL of the ADP-Glo reagent (ADP-Glo™ kinase assay kit, purchased from Promega, No.: V9102) was added to each well, and reacted at 25° C. for 40 minutes. Then 20 μL of the ADP-Glo kinase detection reagent was added to each well and reacted at 25° C. for 30 minutes. The kinase activity was detected by luminescence using the ADP-Glo kinase assay kit according to the manufacture's instruction, and IC50 values of the compounds of the present invention were calculated.

T1 sequence (P52333 781-1124 limits assumed): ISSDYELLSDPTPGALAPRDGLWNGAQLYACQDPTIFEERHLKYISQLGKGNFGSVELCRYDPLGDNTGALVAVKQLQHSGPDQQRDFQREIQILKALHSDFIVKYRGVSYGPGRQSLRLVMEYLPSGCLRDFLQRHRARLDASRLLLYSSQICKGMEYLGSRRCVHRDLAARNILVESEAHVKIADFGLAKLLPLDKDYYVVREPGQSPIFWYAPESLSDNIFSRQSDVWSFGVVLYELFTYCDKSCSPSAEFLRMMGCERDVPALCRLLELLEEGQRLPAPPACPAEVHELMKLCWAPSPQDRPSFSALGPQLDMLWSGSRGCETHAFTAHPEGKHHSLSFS
T2 sequence (Q06187 whole entry): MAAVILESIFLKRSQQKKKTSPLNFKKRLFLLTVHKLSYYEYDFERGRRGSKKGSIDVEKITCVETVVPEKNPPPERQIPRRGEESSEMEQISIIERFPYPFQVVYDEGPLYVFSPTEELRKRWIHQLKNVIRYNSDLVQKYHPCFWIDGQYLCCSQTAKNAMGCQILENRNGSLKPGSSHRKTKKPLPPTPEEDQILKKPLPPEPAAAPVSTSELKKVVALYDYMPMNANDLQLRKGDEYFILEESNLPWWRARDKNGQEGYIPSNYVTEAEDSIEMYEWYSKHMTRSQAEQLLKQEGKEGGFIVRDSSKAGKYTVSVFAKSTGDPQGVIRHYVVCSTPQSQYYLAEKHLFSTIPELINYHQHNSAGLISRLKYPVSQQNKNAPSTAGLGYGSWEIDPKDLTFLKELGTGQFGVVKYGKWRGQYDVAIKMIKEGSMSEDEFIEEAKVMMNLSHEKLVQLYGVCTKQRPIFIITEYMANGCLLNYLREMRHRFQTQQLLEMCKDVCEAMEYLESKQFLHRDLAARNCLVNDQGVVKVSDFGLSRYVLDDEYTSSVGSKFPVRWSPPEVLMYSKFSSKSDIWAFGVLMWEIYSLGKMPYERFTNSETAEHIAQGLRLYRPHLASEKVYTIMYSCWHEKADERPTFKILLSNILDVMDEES

A word on the IC50: it is the point on the concentration scale where inhibition reaches its midpoint. On to `C=CC(=O)N1CCC[C@@H](Nc2nc(Nc3cccs3)nc3ccsc23)C1` [Example 84], for which the IC50 in assay [1] is 10 to 100 nM; in assay [2], no more than 50 nM.
The matching figures for `C=CC(=O)N1CCC[C@@H](Nc2nc(Nc3cc(C)no3)nc3ccsc23)C1` [Example 85]: 10 to 100 nM and 50 to 100 nM.
On the same counts, the results for `C=CC(=O)N1CC(CNc2nc(Nc3cnn(C)c3)nc3ccoc23)C1` [Example 92, 1-(3-(((2-((1-methyl-1H-pyrazol-4-yl)amino)furo[3,2-d]pyrimidin-4-yl)amino)methyl)azetidin-1-yl)prop-2-en-1-one] are 100 to 1000 nM and no more than 50 nM.
The matching figures for `C=CC(=O)N1CC[C@@H](Nc2nc(Nc3cnn(C)c3)nc3ccoc23)C1` [Example 93]: 10 to 100 nM and no more than 50 nM.
For the compound `C=CC(=O)N1CC[C@@H](Nc2nc(Nc3cc(C)ns3)nc3ccoc23)C1` [Example 94], the IC50 was no more than 10 nM in assay [1] and no more than 50 nM in assay [2].
As for `C=CC(=O)N1CCC[C@@H](Nc2nc(Nc3cnn(C)c3)nc3ccoc23)C1` [Example 95], the values for the IC50 in assay [1] and in assay [2] were 10 to 100 nM and no more than 50 nM, respectively.
Consider `C=CC(=O)N1CCC[C@@H](Nc2nc(Nc3cc(C)ns3)nc3ccoc23)C1` [Example 96], for which the IC50 is no more than 10 nM in assay [1] and no more than 50 nM in assay [2].
Consider `C=CC(=O)N1CC(CNc2nc(Nc3cnn(C)c3)nc3sccc23)C1` [Example 99, 1-(3-(((2-((1-methyl-1H-pyrazol-4-yl)amino)thieno[2,3-d]pyrimidin-4-yl)amino)methyl)azetidin-1-yl)prop-2-en-1-one], for which the IC50 lay within 10 to 100 nM in assay [1] and 50 to 100 nM in assay [2].
Turning to `C=CC(=O)N1CC[C@@H](Nc2nc(Nc3cnn(C)c3)nc3sccc23)C1` [Example 101], the IC50 in assay [1] lay in the range of 100 to 1000 nM; in assay [2], 50 to 100 nM.
Regarding `C=CC(=O)N1CC[C@@H](Nc2nc(Nc3cc(C)ns3)nc3sccc23)C1` [Example 102], the IC50 in assay [1] is 10 to 100 nM; in assay [2], no more than 50 nM.
With `C=CC(=O)N1CCC[C@@H](Nc2nc(Nc3cnn(C)c3)nc3sccc23)C1` [Example 103], the values for the IC50 in assay [1] and in assay [2] were 100 to 1000 nM and no more than 50 nM, respectively.
In the case of `C=CC(=O)N1CCC[C@@H](Nc2nc(Nc3cc(C)ns3)nc3sccc23)C1` [Example 104], the figures for the IC50 in assay [1] and in assay [2] were 10 to 100 nM and no more than 50 nM, respectively.
On the same counts, the results for `C=CC(=O)N1CC[C@@H](N(C)c2nc(Nc3cnn(C)c3)nc3ccsc23)C1` [Example 105, (R)-1-(3-(methyl(2-((1-methyl-1H-pyrazol-4-yl)amino)thieno[3,2-d]pyrimidin-4-yl)amino)pyrrolidin-1-yl)prop-2-en-1-one] are 10 to 100 nM and no more than 50 nM.
With `C=CC(=O)N1CC(CNc2nc(Nc3cnn(C(C)C)c3)nc3ccsc23)C1` [Example 108], the 50% inhibitory concentration (IC50) in assay [1] was no more than 10 nM; in assay [2], no more than 50 nM.
On the same counts, the results for `C=CC(=O)N1CC(CNc2nc(Nc3cnn(C4CCC4)c3)nc3ccsc23)C1` [Example 111] are 10 to 100 nM and no more than 50 nM.
`C=CC(=O)N1CC(CNc2nc(Nc3cnn(C4CCCC4)c3)nc3ccsc23)C1` [Example 112]: the IC50 in assay [1] is 10 to 100 nM; in assay [2] it was no more than 50 nM.
`C=CC(=O)N1CC(CNc2nc(Nc3cnn(COC)c3)nc3ccsc23)C1` [Example 114]: the IC50 was 10 to 100 nM in assay [1] and no more than 50 nM in assay [2].
In the case of `C=CC(=O)N1CC(CNc2nc(Nc3cnn(CCOC)c3)nc3ccsc23)C1` [Example 115], the IC50 in assay [1] is 10 to 100 nM; in assay [2] it was no more than 50 nM.
Take `C=CC(=O)N1CC(CNc2nc(Nc3cnn(C(C)=O)c3)nc3ccsc23)C1` [Example 116]: the IC50 is 10 to 100 nM in assay [1] and no more than 50 nM in assay [2].
With `C=CC(=O)N1CC[C@@H](Nc2nc(Nc3cnn(CC)c3)nc3ccsc23)C1` [Example 118], the IC50 is 10 to 100 nM in assay [1] and no more than 50 nM in assay [2].
For the compound `C=CC(=O)N1CC[C@@H](Nc2nc(Nc3cnn(C(C)C)c3)nc3ccsc23)C1` [Example 119], the IC50 is 10 to 100 nM in assay [1] and no more than 50 nM in assay [2].
Take `C=CC(=O)N1CC[C@@H](Nc2nc(Nc3cnn(C4CCC4)c3)nc3ccsc23)C1` [Example 120]: the concentration for half-maximal inhibition (IC50) in assay [1] was 10 to 100 nM; in assay [2], no more than 50 nM.
Take `C=CC(=O)N1CC[C@@H](Nc2nc(Nc3cnn(C4CCCC4)c3)nc3ccsc23)C1` [Example 121]: the values for the IC50 in assay [1] and in assay [2] were 10 to 100 nM and no more than 50 nM, respectively.
Turning to `C=CC(=O)N1CC[C@@H](Nc2nc(Nc3cnn(CCOC)c3)nc3ccsc23)C1` [Example 122], the results for the IC50 in assay [1] and in assay [2] were no more than 10 nM and no more than 50 nM, respectively.
Consider `C=CC(=O)N1CC[C@@H](Nc2nc(Nc3cnn(CCCOC)c3)nc3ccsc23)C1` [Example 123], for which the IC50 was 10 to 100 nM in assay [1] and no more than 50 nM in assay [2].
As for `C=CC(=O)N1CC[C@@H](Nc2nc(Nc3cnn(CCN(C)C)c3)nc3ccsc23)C1` [Example 124], the IC50 in assay [1] is 10 to 100 nM; in assay [2], no more than 50 nM.
`C=CC(=O)N1CC[C@@H](Nc2nc(Nc3cnn(C4CCOCC4)c3)nc3ccsc23)C1` [Example 125]: the IC50 is no more than 10 nM in assay [1] and no more than 50 nM in assay [2].
Turning to `C=CC(=O)N1CC[C@@H](Nc2nc(Nc3cnn(CCN4CCOCC4)c3)nc3ccsc23)C1` [Example 126], the IC50 is 10 to 100 nM in assay [1] and no more than 50 nM in assay [2].
`C=CC(=O)N1CCC[C@@H](Nc2nc(Nc3cnn(CC)c3)nc3ccsc23)C1` [Example 127]: the values for the IC50 in assay [1] and in assay [2] were no more than 10 nM and no more than 50 nM, respectively.
On the same counts, the results for `C=CC(=O)N1CCC[C@@H](Nc2nc(Nc3cnn(C(C)C)c3)nc3ccsc23)C1` [Example 128] are 10 to 100 nM and no more than 50 nM.
With `C=CC(=O)N1CCC[C@@H](Nc2nc(Nc3cnn(C4CCC4)c3)nc3ccsc23)C1` [Example 129], the IC50 in assay [1] was 10 to 100 nM; in assay [2], no more than 50 nM.
For the compound `C=CC(=O)N1CCC[C@@H](Nc2nc(Nc3cnn(C4CCCC4)c3)nc3ccsc23)C1` [Example 130], the IC50 is 10 to 100 nM in assay [1] and no more than 50 nM in assay [2].
As for `C=CC(=O)N1CCC[C@@H](Nc2nc(Nc3cnn(CCOC)c3)nc3ccsc23)C1` [Example 131], the IC50 in assay [1] was 10 to 100 nM; in assay [2] it was no more than 50 nM.
As for `C=CC(=O)N1CCC[C@@H](Nc2nc(Nc3cnn(C)c3)nn3cccc23)C1` [Example 135], the IC50 was 10 to 100 nM in assay [1] and no more than 50 nM in assay [2].
Consider `C=CC(=O)N1CC[C@@H](Nc2nc(Nc3cnn(C)c3)nn3cccc23)C1` [Example 138], for which the IC50 in assay [1] was 10 to 100 nM; in assay [2] it was no more than 50 nM.
